Results: US9849100B2, “Pharmaceutical compositions suitable for parenteral administration comprising aqueous suspensions of benzylamine derivatives having low solubilities” (KalVista Pharmaceuticals Limited, priority 2013, dated 2017)
Like-named read-outs stand apart in the source and are kept apart here.

Experiments:
[1] = Ocular tissue concentration study at twelve weeks following a single intravitreal dose in pigmented rabbits; type: in vivo; details: both sexes, Dutch-belted, rabbit, other: intravitreal, single bilateral intravitreal dose of suspension, Day 86
Procedure: An aqueous suspension pharmaceutical composition of milled N—[(R)-1-[(S)-1-(4-aminomethyl-benzylcarbamoyl)-2-phenyl-ethylcarbamoyl]-2-(4-ethoxy-phenyl)-ethyl]-benzamide hydrochloride was prepared according to Example B1. The resulting nominal 50 mg/mL suspension was diluted with the milling vehicle (prepared according to Example B1) into dosing formulations for intravitreal injection. Five experimentally naïve male and female Dutch-belted rabbits, approximately 5 months old and weighing 1.6 to 2.2 kilograms at the outset of the study were assigned to treatment groups as shown in Table iv. [table] Animals were administered bilateral intravitreal doses of the suspension formulations once on Day 1. On Day 86, the vitreous humors and retina (with choroid) tissues were analysed for active ingredient concentration.

diabetic rats = details: cited from earlier work

concentration at 86 day ([1]; retina (with choroid), 15 μg/eye, low-dose group (15 μg/eye), read-out: average retina (with choroid) tissue concentration)	concentration at 86 day ([1]; retina (with choroid), 150 μg/eye, high-dose group (150 μg/eye), read-out: average retina (with choroid) tissue concentration)	concentration at 86 day ([1]; vitreous humor, 15 μg/eye, low-dose group (15 μg/eye), read-out: vitreous humor concentrations (range))	concentration at 86 day ([1]; vitreous humor, 150 μg/eye, high-dose group (150 μg/eye), read-out: average vitreous humor concentration)	concentration at 86 day ([1]; vitreous humor, 150 μg/eye, high-dose group (150 μg/eye), read-out: vitreous humor concentrations (range))	Compound	retinal blood flow abnormalities (diabetic rats)	retinal vascular permeability (diabetic rats)
1620 ng/g	44500 ng/g	0.216 to 935 ng/mL	27800 ng/mL	2500 to 56500 ng/mL	CCOc1ccc(C[C@@H](NC(=O)c2ccccc2)C(=O)N[C@@H](Cc2ccccc2)C(=O)NCc2ccc(CN)cc2)cc1 [active ingredient, N—[(R)-1-[(S)-1-(4-aminomethyl-benzylcarbamoyl)-2-phenyl-ethylcarbamoyl]-2-(4-ethoxy-phenyl)-ethyl]-benzamide]		
					N=C(N)c1ccc(CNC(=O)c2cnn(Cc3ccccc3)c2)cc1 [ASP-440]	ameliorated	ameliorated
